Test results from article PMC8341910, “Structural and biophysical insights into the mode of covalent binding of rationally designed potent BMX inhibitors” (RSC Chemical Biology, 2020).
Converted amounts (≈) assume the structure as drawn. Like-named read-outs stand apart in the source and are kept apart here.

Assays:
BMX = molecular target: T1, BMX (Homo sapiens, UniProt P51813); test: BMX biochemical activity assay (HTRF, phosphorylation of a biotinylated peptide); conditions: for IC50: read-out: BMX IC50
T1 sequence (P51813 1-675): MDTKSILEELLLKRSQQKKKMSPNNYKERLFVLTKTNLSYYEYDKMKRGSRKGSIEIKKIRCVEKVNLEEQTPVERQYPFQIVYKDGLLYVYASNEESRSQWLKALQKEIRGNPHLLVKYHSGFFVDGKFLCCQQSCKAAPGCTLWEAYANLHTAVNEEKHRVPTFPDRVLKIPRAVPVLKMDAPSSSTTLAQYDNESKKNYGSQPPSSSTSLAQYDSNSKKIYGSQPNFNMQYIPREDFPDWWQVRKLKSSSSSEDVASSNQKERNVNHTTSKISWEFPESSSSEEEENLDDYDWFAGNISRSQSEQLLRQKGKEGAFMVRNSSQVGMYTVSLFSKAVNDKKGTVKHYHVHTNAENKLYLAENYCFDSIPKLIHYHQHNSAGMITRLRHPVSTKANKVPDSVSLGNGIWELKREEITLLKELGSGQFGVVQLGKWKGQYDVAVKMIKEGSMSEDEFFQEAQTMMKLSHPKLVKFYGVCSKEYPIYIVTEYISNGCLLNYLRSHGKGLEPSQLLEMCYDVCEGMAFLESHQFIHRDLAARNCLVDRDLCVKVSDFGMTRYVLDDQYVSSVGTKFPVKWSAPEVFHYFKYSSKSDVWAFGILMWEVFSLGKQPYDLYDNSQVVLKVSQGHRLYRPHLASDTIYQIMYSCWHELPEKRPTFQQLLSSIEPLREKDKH

[1] = molecular target: T2, recombinant human BMX protein (hBMX) (Homo sapiens, UniProt P51813); test: Differential scanning fluorimetry (DSF); type: binding; conditions: 100 μM compound; for ΔTm: versus apo-BMX; for Average Tm of BMX with compound: apo-BMX Tm 51.8-52.2 °C
T2 construct: Crystallization, data collection, and structure determination of BMX catalytic domain in; made in house; host or cells: Sf-9 insect cells
Description: We further characterized the binding interaction between JS24–JS27 and BMX by using differential scanning fluorimetry (DSF) and surface plasmon resonance (SPR). Purified recombinant human BMX protein (hBMX) was first subjected to thermal scanning in the absence and presence of JS24–JS27, and the respective protein melting temperature (Tm) calculated.
Differential Scanning Fluorimetry:
DSF was performed in MicroAmp™ EnduraPlate™ Optical 96 -Well Clear Reaction Plates
with Barcode (Applied Biosystems, Life Technologies, California, USA) using a QuantStudio
7 Flex Real-Time PCR System (Applied Biosystems). Pre-incubation of the protein with the
compound for 2 hours at 4 °C was required prior to DSF experiments. The final reaction mixture
(20 μL of total volume) contained 4 μg of His6-BMX, 4-fold of Protein Thermal Shift™ Dye
(Applied Biosystems) diluted in protein buffer solution, and 100 μM of compound. The
temperatures were obtained by taking the midpoint of each transition.

[2] = pH 6.8
Excerpt: For assessment of drug permeability, we relied on parallel artificial membrane permeability assay (PAMPA) performed at Pion Inc. with the PAMPA Evolution™ instrument (Table S1, ESI ^†).
methods (ESOL model1 and Ali et al.2) PAMPA: Pe is effective permeability (x10-6 cm/sec)
measured directly from assay at pH 6.8 and %R is membrane retention.
as the average of quadruplicates. Und label refers to compounds with extremely low solubility
for which UV limits were below the detection limits therefore considered undetected.
Compounds were labelled as high permeability (green), medium permeability (orange) or low
Artificial Membrane Permeability (PAMPA):
The PAMPA Evolution™ instrument was used to determine permeability, at Pion Inc. In
PAMPA, a sandwich is formed such that each composite well is divided into two chambers,
measured at pH 6.8 in the donor compartment using low-binding, low UV Prisma buffer. The
drug-free acceptor compartment was filled with acceptor sink buffer containing a scavenger at
the start of the test. The proprietary scavenger mimics serum proteins and blood circulation,
thus creating sink conditions. Aqueous solutions of studied compounds are prepared by diluting
and thoroughly mixing 3 µL of DMSO stock in 600 µL of Prisma HT buffer. Final
concentration of organic solvent (DMSO) in aqueous buffer is ≤ 0.5% (v/v). The reference
solution is identical to the donor at time zero, so that any surface adsorption effects from the
plastic ware is compensated. The PAMPA sandwich was assembled and allowed to incubate
for ~15 hours. The solutions in the donor compartment were un-stirred within duration of the
experiment. Thus, the thickness of the aqueous boundary layer expected to be about 1000 µm.
The sandwich was then separated, and both the donor and receiver compartments were assayed
for the amount of drug present by comparison with the UV spectrum obtained from reference

[3] = Dynamic light scattering, colloidal aggregation; type: physicochemical; conditions: measured at 10 µM, 1 µM and 100 nM; water, 25 °C; read-out: DLS maximum soluble concentration at which no aggregates are observed
[4] = Experiment 2 of Fig. S3, control commercial BMX-IN-1
[5] = Experiment 3 of Fig. S3, control commercial BMX-IN-1
[6] = Experiment 1 of Fig. S3, control JS9A (in-house BMX-IN-1)
[7] = relative to the control of the same set of experiments

| Compound | IC50 (BMX; [4]) [µM] | ΔTm [1] [°C] | Average Tm of BMX with compound [1] [°C] | PAMPA/%R membrane retention [2] [%] | PAMPA/Pe effective permeability [2] | IC50 (BMX; [5]) [µM] | solubility [3] [µM] | IC50 (BMX; [6]) [µM] | BMX potency gain (fold) against BMX-IN-1 (BMX; [7]) [fold] | BMX potency loss (fold) against control BMX-IN-1 (BMX; [7]) [fold] |
| --- | --- | --- | --- | --- | --- | --- | --- | --- | --- | --- |
| C=CC(=O)Nc1cc(-n2c(=O)ccc3cnc4ccc(N5CCCCC5)cc4c32)ccc1C [JS20] | 0.042 ± 0.013 | 7.36±0.11 | 59.29±0.11 | 18±1 | 30±2 x10-6 cm/sec | – | – | – | – | – |
| C=CC(=O)Nc1cc(-n2c(=O)ccc3cnc4ccc(-c5cccc(NS(C)(=O)=O)c5)cc4c32)ccc1C [JS15] | – | 8.79±0.28 | 60.72±0.28 | 17±24 | 30±18 x10-6 cm/sec | 0.119 ± 0.0114 | 1 (≈ 0.525 µg/mL) | – | – | – |
| C=CC(=O)Nc1cc(-n2c(=O)ccc3cnc4ccc(N5CCOCC5)cc4c32)ccc1C [JS21] | 0.043 ± 0.005 | 8.57±0.06 | 60.50±0.06 | 19±3 | 22±1 x10-6 cm/sec | – | – | – | – | – |
| C=CC(=O)Nc1cc(-n2c(=O)ccc3cnc4ccc(-c5ccc(C(F)(F)F)nc5)cc4c32)ccc1C [JS19] | 0.47 ± 0.179 | – | 58.64±0.13 | – | Und | – | < 0.1 | – | – | – |
| C=CC(=O)Nc1cc(-n2c(=O)ccc3cnc4ccc(-c5ccncc5)cc4c32)ccc1C [JS17] | 0.045 ± 0.01 | 7.62±0.01 | 59.55±0.01 | 10±3 | 24±1 x10-6 cm/sec | – | – | – | – | – |
| C=CC(=O)Nc1cccc(-n2c(=O)ccc3cnc4ccc(-c5ccc(NS(C)(=O)=O)cc5)cc4c32)c1 [JS9D] | – | 7.74±0.01 | 59.66±0.01 | 48±3 | 11±1 x10-6 cm/sec | – | 1 (≈ 0.511 µg/mL) | 0.059 ± 0.005 | 6 | – |
| C=CC(=O)Nc1cc(-n2c(=O)ccc3cnc4ccc(-c5ccc(NS(=O)(=O)CCCC)cc5)cc4c32)ccc1C [JS14] | 0.89 ± 0.027 | 7.61±0.11 | 59.53±0.11 | – | Und | – | 0.1 (≈ 0.0567 µg/mL) | – | – | – |
| C=CC(=O)Nc1cc(-n2c(=O)ccc3cnc4ccc(N5CCC(N(C)C)CC5)cc4c32)ccc1C [JS23] | 0.041 ± 0.006 | 8.66±0.11 | 60.59±0.11 | 39±5 | 2.2±0.2 x10-6 cm/sec | – | – | – | – | – |
| C=CC(=O)Nc1cc(-n2c(=O)ccc3cnc4ccc(-c5ccc(NS(C)(=O)=O)cc5)cc4c32)ccc1OC [JS9E] | – | 6.05±0.01 | 57.97±0.01 | 55±8 | 40±5 x10-6 cm/sec | – | 1 (≈ 0.541 µg/mL) | 1.3 ± 0.206 | – | 4 |
| COC(=O)C=CCNc1cc(-n2c(=O)ccc3cnc4ccc(-c5ccc(NS(C)(=O)=O)cc5)cc4c32)ccc1C (mixture of isomers) [JS13] | – | 0.52±0.06 | 52.44±0.06 | 30±16 | 45±9 x10-6 cm/sec | – | 0.1 | – | – | – |
| Cc1ccc(-n2c(=O)ccc3cnc4ccc(-c5ccc(NS(C)(=O)=O)cc5)cc4c32)cc1NCC=CC#N (mixture of isomers) [JS12] | – | 0.13±0.06 | 52.05±0.06 | 39±2 | 45±3 x10-6 cm/sec | – | 0.1 | – | – | – |
| C=CC(=O)Nc1cc(-n2c(=O)ccc3cnc4ccc(N5CCN(S(C)(=O)=O)CC5)cc4c32)ccc1C [JS22] | – | 8.79±0.21 | 60.72±0.21 | 19±6 | 18±1 x10-6 cm/sec | 0.0938 ± 0.00087 | – | – | – | – |
| C=CC(=O)Nc1cc(-n2c(=O)ccc3cnc4ccc(Br)cc4c32)ccc1C [JS29] | 0.044 ± 0.002 | – | – | 1±1 | 32±4 x10-6 cm/sec | – | – | – | – | – |
